The values that follow come from ChEMBL document CHEMBL1154051, “Analysis of binding parameters of HIV-1 integrase inhibitors: correlates of drug inhibition and resistance” (Bioorg Med Chem, 2009).

One may read the IC50 as the concentration that inhibits the measured activity by half.

This test concerns the target Human immunodeficiency virus type 1 integrase (Human immunodeficiency virus 1, UniProt Q7ZJM1). In words: Inhibition of HIV1 integrase strand transfer activity.

Human immunodeficiency virus type 1 integrase, sequence (Q7ZJM1 whole entry): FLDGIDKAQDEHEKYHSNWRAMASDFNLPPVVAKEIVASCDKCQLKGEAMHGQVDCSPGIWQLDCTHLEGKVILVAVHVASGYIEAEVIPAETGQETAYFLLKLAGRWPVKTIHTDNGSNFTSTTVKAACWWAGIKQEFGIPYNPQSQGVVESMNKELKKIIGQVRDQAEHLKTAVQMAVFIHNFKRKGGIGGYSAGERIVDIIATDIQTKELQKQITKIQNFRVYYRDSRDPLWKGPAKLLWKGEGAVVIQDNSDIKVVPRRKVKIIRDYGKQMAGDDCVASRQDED

The compound `O=C(O)/C(O)=C/C(=O)c1cccc(Cc2ccc(Cl)cc2)c1` gave an IC50 of 750 nM. That is a sub-micromolar value.

In the case of `O=C(O)/C(O)=C/C(=O)c1ccccc1Cc1ccccc1`, half-maximal inhibition (IC50) was put at 5670 nM. This IC50 lies about 7.6-fold higher than the previous one.

For the compound `COc1cnc2c(O)c3c(c(OC)c2c1)CN(Cc1ccc(F)cc1)C3=O`, it took 90 nM to reach half-maximal inhibition (IC50).

As for `O=C(NCc1ccc(F)cc1)c1ccc2cccnc2c1O`, the IC50 amounted to 30 nM. Compared with the last compound, the IC50 is about 3-fold lower.

`O=C(O)/C(O)=C/C(=O)c1cc(OCc2ccccc2)cc(OCc2ccccc2)c1` registered a half-inhibitory concentration (IC50) of 100 nM.

In the case of `CC(=O)N(C)CCNc1cc(C(=O)NCc2ccc(F)cc2)c(O)c2ncccc12`, the half-maximal inhibitory concentration (IC50) was found to be 30 nM.

Regarding `O=C(O)/C(O)=C/C(=O)C1C=CSC1Cc1ccccc1` (stereo not drawn), the IC50 turned out to be 180 nM.

As to `O=C(/C=C(\O)C(=O)O)C(=O)c1cccc(C(=O)c2ccccc2)c1`, the IC50 came out at 2400 nM.

With `O=C(O)/C(O)=C/C(=O)c1cccc(Cc2ccccc2F)c1`, the IC50 is < 100 nM.

For the compound `O=C(O)/C(O)=C/C(=O)c1cccc(OCc2ccccc2)c1`, the half-inhibitory concentration (IC50) came out at 350 nM.

`O=C1c2c(c(-c3c(F)cccc3F)c3cccnc3c2O)CN1Cc1ccc(F)cc1` had a half-inhibitory concentration (IC50) of 330 nM.

Regarding `CN(C)S(=O)(=O)Oc1c2c(c(O)c3ncccc13)C(=O)N(Cc1ccc(F)cc1)C2`, the half-maximal inhibitory concentration (IC50) was determined as 250 nM.

With `[N-]=[N+]=NCc1cc(CN=[N+]=[N-])cc(C(=O)/C=C(\O)C(=O)O)c1`, the midpoint of inhibition, the IC50, lay at 460 nM. This IC50 lies about 1.8-fold higher than the previous one.

With `O=C(O)/C(O)=C/C(=O)c1cccc(Cc2ccccc2Cl)c1`, the IC50 was < 100 nM.

The compound `O=C(O)/C(O)=C/C(=O)c1cccn1CCCc1ccccc1` yielded an IC50 of 500 nM.

On to `O=C(O)/C(O)=C/C(=O)c1ccn(Cc2ccccc2)c1`, for which inhibition was half-maximal at 550 nM (IC50). This IC50 and that of the compound before are within 1.5-fold of each other.

On to `CC(=O)N(C)c1cc(C(=O)NCc2ccc(F)cc2)c(O)c2ncccc12`, for which the concentration for half-maximal inhibition (IC50) turned out to be 20 nM.

In turn, `CN(C)C(=O)C(=O)N(C)c1cc(C(=O)NCc2ccc(F)cc2)c(O)c2ncccc12` gave a concentration for half-maximal inhibition (IC50) of 40 nM.

In the case of `COc1ccc(Cc2cccc(C(=O)/C=C(\O)C(=O)O)c2)cc1`, the IC50 came to 150 nM.

For the compound `O=C(O)/C(O)=C/C(=O)c1ccc(Oc2ccccc2)cc1`, the IC50 is 11400 nM.

`O=C(O)/C(O)=C/C(=O)c1cccn1Cc1ccc(-c2ccccc2)cc1` gave a half-inhibitory concentration (IC50) of 7500 nM.

`[N-]=[N+]=NCc1cccc(C(=O)/C=C(\O)C(=O)O)c1` returned an IC50 of 330 nM.

On to `O=C(O)/C(O)=C/C(=O)c1cccc(Cc2cccc(Cl)c2)c1`, for which the half-inhibitory concentration (IC50) was < 100 nM.

For the compound `O=C(O)/C(O)=C/C(=O)c1cccc(Cc2ccc(F)cc2)c1`, the concentration for half-maximal inhibition (IC50) was < 100 nM.

`COc1cccc(Cc2cccc(C(=O)/C=C(\O)C(=O)O)c2)c1` returned a 50% inhibitory concentration (IC50) of 140 nM.

The compound `O=C(O)/C(O)=C/C(=O)c1cccc(Br)c1` registered an IC50 of 2500 nM.

As for `O=C(O)/C(O)=C/C(=O)c1cccn1Cc1ccccc1`, the IC50 worked out at 220 nM. Against the preceding compound, the IC50 is about 11-fold lower.

Compound `O=C(O)/C(O)=C/C(=O)c1ccc(Cc2ccccc2)s1` returned an IC50 of 500 nM.

For `CC(=O)N1CCN(c2cc(C(=O)NCc3ccc(F)cc3)c(O)c3ncccc23)CC1`, it took 20 nM to reach half-maximal inhibition (IC50). Compared with the last compound, the IC50 is about 25-fold lower.

Regarding `O=C(O)/C(O)=C/C(=O)c1cccc(Cc2cccc(F)c2)c1`, the IC50 is 250 nM.

As to `O=C(O)/C(O)=C/C(=O)c1csc(Cc2ccccc2)c1`, the IC50 was determined as 130 nM.

The compound `CN1CCN(c2cc(C(=O)NCc3ccc(F)cc3)c(O)c3ncccc23)CC1` displayed an IC50 of 40 nM.

Compound `O=C1c2c(c(C(=O)N3CCOCC3)c3cccnc3c2O)CN1Cc1ccc(F)cc1` showed an IC50 of 40 nM.
